This is an account of results in patent publication US6831091B2, “Salt forms of 3-(4-bromo-2,6-difluoro-benzyloxy)-5-[3-(4-pyrrolidin-1-yl-butyl)-ureido]-isothiazole-4-carboxylic acid amide and method of production” (priority 2000, dated 2004).

Data set [1] can be described thus: Hygroscopicity (water uptake at stated relative humidity). In kind it is physicochemical. The note with it: for hygroscopicity relative to the mesylate salt: compared with mesylate salt; for water absorbed: 90% relative humidity.
Data set [2] can be described thus: Stability in air / deliquescence. In kind it is physicochemical. The note with it: can be used without deliquescence.
A short description of data set [3]: Crystallinity (freedom from amorphous material). As to conditions: i.e., substantially free of amorphous material. In kind it is physicochemical.
Data set [4] in a line: Conversion of crystal form in refluxing ethanol. In kind it is physicochemical.
A short description of data set [5]: Tendency of concentrated aqueous solution to form viscous mixtures upon standing. In kind it is physicochemical.
Data set [6] can be described thus: Sedative effect on dosing. The note with it: low to moderate dosing. The data set is classed as in vivo.
Data set [7] is classed as physicochemical. The note with it: for kinetic solubility relative to free base or hydrochloride: compared with free base or hydrochloride form.

For the molecule “3-(4-bromo-2,6-difluoro-benzyloxy)-5-[3-(4-pyrrolidin-1-yl-butyl)-ureido]-isothiazole-4-carboxylic acid amide hemi-citrate [Example 4]”, the Hygroscopicity in data set [1] (87% relative RH) came out at 0.43%. In addition, the “hygroscopicity relative to the mesylate salt” value in data set [1] is “less hygroscopic than the mesylate salt”. Also, the “stability in air” value in data set [2] is listed as “more stable in air”.

On to “3-(4-bromo-2,6-difluoro-benzyloxy)-5-[3-(4-pyrrolidin-1-yl-butyl)-ureido]-isothiazole-4-carboxylic acid amide hemi-succinate”, for which the “hygroscopic stability” value in data set [1] is “substantially hygroscopically stable”. In addition, the “crystallinity” value in data set [3] was “high crystallinity”.

For the molecule “3-(4-bromo-2,6-difluoro-benzyloxy)-5-[3-(4-pyrrolidin-1-yl-butyl)-ureido]-isothiazole-4-carboxylic acid amide hemi-succinate [Example 8]”, the Hygroscopicity is 0.6 % w/w in data set [1] (30° C. and 90% RH, listed as Hemi-succinate crystal form A); 0.6% in data set [1] (90% relative RH). The molecule further registered a water absorbed in data set [1] (listed as Form A hemi-succinate) of 0.6%.

Consider “3-(4-bromo-2,6-difluoro-benzyloxy)-5-[3-(4-pyrrolidin-1-yl-butyl)-ureido]-isothiazole-4-carboxylic acid amide hemi-succinate [Example 9]”, for which the “time for conversion of hemi-succinate form B into form A” value in data set [4] is listed as “less than 24 hours”. Further, the Hygroscopicity in data set [1] (30° C. and 90% RH, listed as Hemi-succinate crystal form B) is on record as 1.5 % w/w; in data set [1] (90% relative RH) it was 1.5%. Further, the water absorbed in data set [1] (listed as Form B hemi-succinate) turned out to be 1.5%.

As for `Cl.NC(=O)c1c(OCc2c(F)cc(Br)cc2F)nsc1NC(=O)NCCCCN1CCCC1` [Example 2, 3-(4-bromo-2,6-difluoro-benzyloxy)-5-[3-(4-pyrrolidin-1-yl-butyl)-ureido]-isothiazole-4-carboxylic acid amide hydrochloride], the “hygroscopic stability” value in data set [1] is given as “substantially hygroscopically stable”. In data set [1] (90% relative humidity at ambient temperature), the Hygroscopicity was 1 % (by weight). The “crystallinity” value in data set [3] is listed as “high crystallinity”. For the same molecule, in data set [5], the “tendency for concentrated aqueous solution to form viscous mixtures upon standing” value is listed as “low tendency”.

In the case of `Br.NC(=O)c1c(OCc2c(F)cc(Br)cc2F)nsc1NC(=O)NCCCCN1CCCC1` [Example 3, 3-(4-bromo-2,6-difluoro-benzyloxy)-5-[3-(4-pyrrolidin-1-yl-butyl)-ureido]-isothiazole-4-carboxylic acid amide hydrobromide], the “sedative effect” value in data set [6] is “mild sedative effect”. The “hygroscopic stability” value in data set [1] is reported as “substantially hygroscopically stable”. The Hygroscopicity in data set [1] (87% relative RH) was 0.1%. Moreover, the “crystallinity” value in data set [3] was “high crystallinity”. Also, the “tendency for concentrated aqueous solution to form viscous mixtures upon standing” value in data set [5] is recorded as “low tendency”.

With `CC(=O)O.NC(=O)c1c(OCc2c(F)cc(Br)cc2F)nsc1NC(=O)NCCCCN1CCCC1` [Example 5, 3-(4-bromo-2,6-difluoro-benzyloxy)-5-[3-(4-pyrrolidin-1-yl-butyl)-ureido]-isothiazole-4-carboxylic acid amide acetate], the “crystallinity” value in data set [3] is listed as “high crystallinity”.

As for `Cc1ccc(S(=O)(=O)O)cc1.NC(=O)c1c(OCc2c(F)cc(Br)cc2F)nsc1NC(=O)NCCCCN1CCCC1` [Example 6, 3-(4-bromo-2,6-difluoro-benzyloxy)-5-[3-(4-pyrrolidin-1-yl-butyl)-ureido]-isothiazole-4-carboxylic acid amide p-tosylate], in data set [1] (87% relative RH), the Hygroscopicity is −0.9%. Further, the “hygroscopicity relative to the mesylate salt” value in data set [1] was “less hygroscopic than the mesylate salt”. Moreover, the “stability in air” value in data set [2] is recorded as “more stable in air”. The “kinetic solubility relative to free base or hydrochloride” value in data set [7] is on record as “greater kinetic solubility than the free base or hydrochloride form”.

In the case of `NC(=O)c1c(OCc2c(F)cc(Br)cc2F)nsc1NC(=O)NCCCCN1CCCC1.O=C(O)C(O)C(O)C(=O)O` [Example 7, 3-(4-bromo-2,6-difluoro-benzyloxy)-5-[3-(4-pyrrolidin-1-yl-butyl)-ureido]-isothiazole-4-carboxylic acid amide L-tartrate], in data set [1] (100% RH), the Hygroscopicity is 0.3%. For the same molecule, in data set [1], the “hygroscopicity relative to the mesylate salt” value was “less hygroscopic than the mesylate salt”. The “stability in air” value in data set [2] was “more stable in air”. For the same molecule, the “kinetic solubility relative to free base or hydrochloride” value in data set [7] is recorded as “greater kinetic solubility than the free base or hydrochloride form”.

For the molecule `CS(=O)(=O)O.NC(=O)c1c(OCc2c(F)cc(Br)cc2F)nsc1NC(=O)NCCCCN1CCCC1` [Example 10, 3-(4-bromo-2,6-difluoro-benzyloxy)-5-[3-(4-pyrrolidin-1-yl-butyl)-ureido]-isothiazole-4-carboxylic acid amide mesylate], the “kinetic aqueous solubility” value in data set [7] was “rapid kinetic aqueous solubility”. For the same molecule, in data set [3], the “crystallinity” value is reported as “high crystallinity”.
